Experimental data published in patent US8735406B2, “8-oxodihydropurine derivative” (Dainippon Sumitomo Pharma Co., Ltd., priority 2009, dated 2014).
Like-named read-outs stand apart in the source and are kept apart here.

Target: T1, FAAH (Rattus norvegicus, UniProt P97612)
T1 construct: Preparation of Rat Brain Membranes Preparations (FAAH Enzyme Solution); from tissue; host or cells: rat cerebrum (brain membrane preparation)
T1 sequence (P97612 1-579): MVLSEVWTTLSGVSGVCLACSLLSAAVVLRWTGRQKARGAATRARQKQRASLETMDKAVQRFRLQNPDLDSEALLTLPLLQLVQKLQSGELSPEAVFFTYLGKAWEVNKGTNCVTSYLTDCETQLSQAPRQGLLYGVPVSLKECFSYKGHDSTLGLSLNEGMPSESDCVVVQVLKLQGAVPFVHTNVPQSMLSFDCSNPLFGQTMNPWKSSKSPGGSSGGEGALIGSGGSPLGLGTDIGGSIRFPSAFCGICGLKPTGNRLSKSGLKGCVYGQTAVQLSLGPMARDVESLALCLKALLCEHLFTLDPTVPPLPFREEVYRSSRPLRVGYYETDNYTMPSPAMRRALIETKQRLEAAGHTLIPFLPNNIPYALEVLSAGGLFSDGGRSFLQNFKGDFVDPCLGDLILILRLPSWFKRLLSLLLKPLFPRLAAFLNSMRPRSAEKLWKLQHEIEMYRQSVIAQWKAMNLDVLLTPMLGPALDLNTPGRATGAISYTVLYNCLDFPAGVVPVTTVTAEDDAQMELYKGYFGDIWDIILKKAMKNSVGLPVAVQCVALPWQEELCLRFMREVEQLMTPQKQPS
Assay: Determination of FAAH inhibitory activity in rat (rat brain membrane preparations, [3H]-anandamide hydrolysis)
Assay type: biochemical
Settings: for IC50: read-out: FAAH Inhibition IC50
Summary of the method: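 Compounds tested from 0.1 nM to 1 μM to derive IC50 against FAAH hydrolysis in rat brain membrane preparations (100 μg/mL). A 10-min 37 °C preincubation was followed by 10 min with [3H]-anandamide (2 nM) mixed with 2 μM unlabelled anandamide. Radioactive ethanolamine was extracted into the water/methanol layer and counted.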

[1] = rat brain membrane preparations, 100 nM test substance, read-out: FAAH Inhibition, Inhibition Rate at 100 nM
[2] = rat brain membrane preparations, test substance 0.1 nM to 1 μM
[3] = at 100 nM, rat brain membrane preparations, read-out: FAAH Inhibition Inhibition Rate at 100 nM
[4] = rat brain membrane preparations

Row | inhibition at 0.1 µM [1] [%] | IC50 [2] [µM] | SMILES | further results
1 | 99 | < 0.001 | CN(CCc1ccc(Cl)cc1)C(=O)n1c(=O)n(C)c2nc(-c3ccnc(F)c3)ncc21 [Example 222, N-[2-(4-Chlorophenyl)ethyl]-2-(2-fluoropyridin-4-yl)-N,9-dimethyl-8-oxo-8,9-dihydro-7H-purine-7-carboxamide] | 
2 | 94 | 0.024 | COc1cccc(Cc2ncc3c(n2)n(C)c(=O)n3C(=O)N2CCC2)c1 [Example 375, 7-(Azetidin-1-ylcarbonyl)-2-(3-methoxybenzyl)-9-methyl-7,9-dihydro-8H-purine-8-one] | 
3 | 95 | 0.012 | CCOc1cccc(C2CN(C(=O)n3c(=O)n(C)c4nc(COC)ncc43)C2)c1 [compound 451] | 
4 | 98 | 0.003 | CCc1cccc(OCc2ncc3c(n2)n(C(=O)N(C)C)c(=O)n3C)c1 [Example 413] | 
5 | 100 | 0.028 | CN(C)c1ccc(-c2ncc3c(n2)n(C)c(=O)n3C(=O)N2CCCC2)cc1 [Example 182, 2-[4-(Dimethylamino)phenyl]-9-methyl-7-(pyrrolidin-1-ylcarbonyl)-7,9-dihydro-8H-purine-8-one] | 
6 | 100 | 0.007 | COCCC1CCN(C(=O)n2c(=O)n(C)c3nc(-c4cccc(OC)c4)ncc32)CC1 [Example 119, 7-{[4-(2-Methoxyethyl)piperidin-1-yl]carbonyl}-2-(3-methoxyphenyl)-9-methyl-7,9-dihydro-8H-purine-8-one] | 
7 | 56 | 0.078 | Cn1c(=O)n(C(=O)N2CCC2)c2cnc(COc3cccc(OC(F)(F)F)c3)nc21 [compound 412] | 
8 | 103 | < 0.01 | Cc1ncc2c(n1)n(C)c(=O)n2C(=O)N(C)CCc1ccc(Cl)cc1 [Example 157, N-[2-(4-Chlorophenyl)ethyl]-N,2,9-trimethyl-8-oxo-8,9-dihydro-7H-purine-7-carboxamide] | 
9 | 99 | 0.007 | Cn1c(=O)n(C(=O)N2CCN(c3ccc(Cl)cc3)CC2)c2cnc(-c3ccccc3)nc21 [Example 126, 7-{[4-(4-Chlorophenyl)piperazin-1-yl]carbonyl}-9-methyl-2-phenyl-7,9-dihydro-8H-purine-8-one] | 
10 | 88 | 0.04 | Cn1c(=O)n(C(=O)N2CCCC2)c2nc(Cc3ccccc3F)ncc21 [Example 300, 2-(2-Fluorobenzyl)-7-methyl-9-(pyrrolidin-1-ylcarbonyl)-7,9-dihydro-8H-purine-8-one] | 
11 | 50 | 0.112 | Cc1ccccc1OCc1ncc2c(n1)n(C(=O)N1CCC1)c(=O)n2C [Example 416] | 
12 | 93 | 0.037 | Cc1cccc(Cc2ncc3c(n2)n(C(=O)N2CCCC2)c(=O)n3C)c1 [Example 294, 7-Methyl-2-(3-methylbenzyl)-9-(pyrrolidin-1-ylcarbonyl)-7,9-dihydro-8H-purine-8-one] | 

More lines, now with the values behind:

Row | SMILES | inhibition at 0.1 µM [1] [%] | IC50 [2] [µM] | further results
13 | Cn1c(=O)n(C(=O)N2CCCC2)c2cnc(-c3cccc([N+](=O)[O-])c3)nc21 [Example 203, 2-(3-nitrophenyl)-9-methyl-7-(pyrrolidin-1-ylcarbonyl)-7,9-dihydro-8H-purine-8-one] | 98 | 0.024 | 
14 | COCc1ncc2c(n1)n(C)c(=O)n2C(=O)N1CC(c2ccc(Cl)cc2)C1 [compound 446] | 101 | 0.006 | 
15 | CCCn1c(=O)n(C(=O)N2CC(c3cccc(C(F)(F)F)c3)C2)c2cnc(COC)nc21 [Example 662, 2-(Methoxymethyl)-9-propyl-7-({3-[3-(trifluoromethyl)phenyl]azetidin-1-yl}carbonyl)-7,9-dihydro-8H-purine-8-one] |  |  | inhibition at 0.1 µM [3]: 97%; IC50 [4]: 0.008 µM
16 | COCc1ncc2c(n1)n(C)c(=O)n2C(=O)N1CC[C@H](Oc2cccc(F)c2)C1 [Example 482, 7-{[(3S)-3-(3-Fluorophenoxy)pyrrolidin-1-yl]carbonyl}-2-(methoxymethyl)-9-methyl-7,9-dihydro-8H-purine-8-one] | 104 | 0.01 | 
17 | Cn1c(=O)n(C(=O)N2CCCC2)c2cnc(Cc3cc(F)cc(F)c3)nc21 [Example 270, 2-(3,5-Difluorobenzyl)-9-methyl-7-(pyrrolidin-1-ylcarbonyl)-7,9-dihydro-8H-purine-8-one] | 96 | 0.032 | 
18 | Cn1c(=O)n(C(=O)N2CCCC2)c2nc(-c3cccc(F)c3)ncc21 [Example 226, 2-(3-Fluorophenyl)-7-methyl-9-(pyrrolidin-1-ylcarbonyl)-7,9-dihydro-8H-purine-8-one] | 99 | 0.027 | 
19 | Cn1c(=O)n(C(=O)N2CCC2)c2nc(COc3ccccc3OC(F)(F)F)ncc21 [Example 435] | 94 | 0.012 | 
20 | COc1cccc(-c2ncc3c(n2)n(C)c(=O)n3C(=O)N2CC[C@@H](OC)C2)c1 [Example 47] | 16 | > 0.1 | 
21 | Cn1c(=O)n(C(=O)N2CCN(c3ncccn3)CC2)c2cnc(-c3ccccc3)nc21 [Example 51, 9-Methyl-2-phenyl-7-{[4-(pyrimidin-2-yl)piperazin-1-yl]carbonyl}-7,9-dihydro-8H-purine-8-one] | 97 | 0.025 | 
22 | CCn1c(=O)n(C(=O)N2CC(c3cccc(F)c3)C2)c2cnc(COC)nc21 [Example 657, 9-Ethyl-7-{[3-(3-fluorophenyl)azetidin-1-yl]carbonyl}-2-(methoxymethyl)-7,9-dihydro-8H-purine-8-one] |  |  | inhibition at 0.1 µM [3]: 119%; IC50 [4]: 0.009 µM
23 | COc1cccc(-c2ncc3c(n2)n(C)c(=O)n3C(=O)N(C)CCc2ccc(Cl)cc2)c1 [Example 69, N-[2-(4-Chlorophenyl)ethyl]-2-(3-methoxyphenyl)-N,9-dimethyl-8-oxo-8,9-dihydro-7H-purine-7-carboxamide] |  | 0.002 | inhibition at 0.1 µM (read-out: FAAH Inhibition, Inhibition Rate at 100 nM): 101%
24 | CN(C)C(=O)n1c(=O)n(C)c2cnc(-c3cccc(F)c3)nc21 [compound 323] | 57 | 0.077 | 
25 | Cn1c(=O)n(C(=O)N2CCCC2Cc2ccccc2)c2cnc(-c3ccccc3)nc21 (centres unmarked) [Example 44] |  | > 0.1 | inhibition at 1 µM (rat brain membrane preparations, 1000 nM test substance (stated in the cell), read-out: FAAH Inhibition, Inhibition Rate (1000 nM)): 30%
26 | COc1cccc(-c2ncc3c(n2)n(C)c(=O)n3C(=O)N(C)CCc2ccccn2)c1 [Example 114, 2-(3-Methoxyphenyl)-N,9-dimethyl-8-oxo-N-[2-(pyridin-2-yl)ethyl]-8,9-dihydro-7H-purine-7-carboxamide] | 103 | 0.002 | 
27 | Cn1c(=O)n(C(=O)N2CCCC2)c2cnc(Cc3ccc(F)cc3)nc21 [Example 256, 2-(4-Fluorobenzyl)-9-methyl-7-(pyrrolidin-1-ylcarbonyl)-7,9-dihydro-8H-purine-8-one] | 99 | 0.007 | 
28 | Cn1c(=O)n(C(=O)N2CCCC2)c2cnc(-c3ccc(C(C)(C)C)cc3)nc21 [compound 185] | 58 | 0.089 | 
29 | CN(C)C(=O)n1c(=O)n(C)c2cnc(CCc3ccc(F)c(F)c3)nc21 [compound 496] | 86 | 0.015 | 
30 | Cn1c(=O)n(C(=O)N2CCCC2)c2nc(-c3ccncc3)ncc21 [Example 252] | 40 | > 0.1 | 
31 | CN(C)C(=O)n1c(=O)n(C)c2cnc(CCc3ccc(OCC(F)F)cc3)nc21 [Example 538, 2-{2-[4-(2,2-Difluoroethoxy)phenyl]ethyl}-N,N,7-trimethyl-8-oxo-7,8-dihydro-9H-purine-9-carboxamide] | 51 |  | 
32 | Cn1c(=O)n(C(=O)N2CCCC2)c2cnc(-c3ccc(C#N)cc3)nc21 [compound 181] | 101 | 0.004 | 
33 | CCCOCc1ncc2c(n1)n(C)c(=O)n2C(=O)N1CC(c2ccccc2)C1 [compound 467] | 69 | 0.052 | 
34 | Cn1c(=O)n(C(=O)N2CCCC2)c2nc(CCc3cccc(F)c3)ncc21 [Example 315, 2-[2-(3-Fluorophenyl)ethyl]-7-methyl-9-(pyrrolidin-1-ylcarbonyl)-7,9-dihydro-8H-purine-8-one] | 95 | 0.019 | 
35 | Cc1cccc(N2CCN(C(=O)n3c(=O)n(C)c4nc(-c5ccccc5)ncc43)CC2)n1 [Example 53, 9-Methyl-7-{[4-(6-methylpyridin-2-yl)piperazin-1-yl]carbonyl}-2-phenyl-7,9-dihydro-8H-purine-8-one] | 97 | 0.019 | 
36 | COc1cccc(-c2ncc3c(n2)n(C)c(=O)n3C(=O)N(C)CC(C)C)c1 [Example 108, 2-(3-Methoxyphenyl)-N,9-dimethyl-N-(2-methylpropyl)-8-oxo-8,9-dihydro-7H-purine-7-carboxamide] | 94 | 0.022 | 
